From patent US20100034778A1, “STEM CELLS” (DUKE UNIVERSITY, priority 2005, published 2010)
Several values for one entry are separate records, joined by “and”; a condition that tells them apart may be missing. Identical values can stand only once. Entries after “also recorded” stand apart in the source; their conditions may differ.

Key:
[1] = test system: BM CD34^+CD38^−lin^− cells; assay: Culture of human BM CD34+CD38-lin- cells with TSF plus retinoid/rexinoid ligand (total cell expansion, immunophenotype, CFC content, morphology); assay type: cell-based
Procedure: (§1) Isolation of Human BM and CB CD34^+CD38^−lin− cells
(§2) Whole BM and CB units were obtained from the Duke University Stem Cell Laboratory within 48 hours of collection. Volume reduction of CB units was accomplished by 10 minute incubation at room temperature with 1% Hetastarch (Abbott Laboratories, North Chicago, Ill.), followed by centrifugation at 700 rpm for 10 minutes to facilitate component separation. The buffy coat was collected and washed twice with Dulbecco's phosphate buffered saline (PBS; Invitrogen, Carlsbad, Calif.) containing 10% heat-inactivated fetal bovine serum (FBS; Hyclone, Logan, Utah), 100 U/ml penicillin, and […] streptomycin (1% pcn/strp; Invitrogen). Cell pellets were resuspended in PBS with 10% FBS and 1% pcn/strp and overlaid onto Lymphoprep (Axis-Shield, Olso, Norway) and centrifuged at 1500 rpm for 30 minutes to isolate the mononuclear cell (MNC) fraction. MNCs were collected and washed twice before proceeding to lineage depletion.
(§3) Briefly, CB or BM MNCs were resuspended at 5−8×10^7 cells/ml in PBS with 10% FBS and 1% pcn/strp and incubated with 100 μl/ml antibody cocktail for 30 minutes followed by incubation with 60 μl/ml magnetic colloid for 30 minutes. Cells were then magnetically depleted on a pump fed negative selection column (Stem Cell Technologies) using the manufacturer's recommended procedure. Lin-cells were washed twice, quantified by hemacytometer count and cryopreserved in 90% FBS and 10% dimethylsulfoxide (DMSO; Sigma-Aldrich, St. Louis, Mo.) or utilized directly for further experiments.
(§4) Lin^− CB or BM cells were thawed, washed once in Iscove's Modified Dulbecco's Medium (IMDM; Invitrogen) containing 10% FBS and 1% pcn/strp, counted, and resuspended at 5−10×10^7/ml. Immunofluorescent staining was conducted using anti-human CD34-fluorescein isothiocyanate (FITC) and anti-human CD38-phycoerythrin (PE) monoclonal antibodies (Becton Dickinson, San Jose, Calif.), for 30 minutes on ice. Stained cells were washed twice and resuspended at 1×10^7 cells/ml in IMDM with 10% FBS and 1% pcn/strp. Analysis and sterile cell sorting was conducted using a FACSvantage flow cytometer (Becton Dickinson) to isolate CD34^+CD38^− and CD34^+CD38^+ subsets. The CD34^+CD38^− sort gate was set to collect only those events falling in the lowest 5% of PE fluorescence within the total CD34^+ population, to ensure acquisition of highly purified CD34^+CD38^− cells.
(§5) Analysis of In Vitro Hematopoietic Activity of Human CD34^+CD38^−lin^− Cells Following Culture with LGD1506
(§6) Primary human BM and CB CD34^+CD38^−lin cells were placed in culture with 20 ng/mL thrombopoietin, 100 ng/mL stem cell factor (SCF), and flt-3 ligand (TSF), a cytokine combination previously found to induce human stem and progenitor cell proliferation and differentiation in vitro (Chute et al, Blood 105:576-583 (2005), Chute et al, Stem ells 22:202-215 (2004)).
In order to assess the hematopoietic effects of retinoid agonists on purified human HSCs, BM and CB CD34^+CD38^−lin^− cells were placed in culture with TSP with and without 1 μM all-trans retinoic acid (ATRA), an agonist of RAR. Total cell expansion, immunophenotype, colony forming cell (CFC) content and morphologic analysis was performed on ATRA-treated progeny and compared with both day 0 CD34^+CD38^−lin^− populations and the progeny of TSF alone to assess the impact of retinoid agonism on the differentiation of human HSCs. This analysis was extended further by cultivating BM and CB CD34^+CD38^−lin^− cells with TSF coupled with ligands with specific affinity for either RAR or RXR (provided courtesy of Ligand Pharmaceuticals, Inc., San Diego, Calif.). The hematopoietic activities of LGD0815, an RARA agonist, LGD0268, an RXR agonist, and LGD1506, an RXR selective modulator, in combination with TSF, were evaluated via measurement of total cell expansion, immunophenotype analysis, CFC content and morphologic analysis of cultured progeny versus day 0 (input) BM or CB CD34^+CD38^−lin^− cells.

[2] = test system: CB CD34^+CD38^−lin^− cells; assay: Culture of human CB CD34+CD38-lin- cells with TSF plus retinoid/rexinoid ligand (immunophenotype, CFC content); assay type: cell-based
Procedure: as §1, §2, §3, §4, §5, §6
In order to assess the hematopoietic effects of retinoid agonists on purified human HSCs, BM and CB CD34^+CD38^−lin^− cells were placed in culture with TSP with and without 1 μM all-trans retinoic acid (ATRA), an agonist of RAR. […] The hematopoietic activities of LGD0815, an RARA agonist, LGD0268, an RXR agonist, and LGD1506, an RXR selective modulator, in combination with TSF, were evaluated via measurement of total cell expansion, immunophenotype analysis, CFC content and morphologic analysis of cultured progeny versus day 0 (input) BM or CB CD34^+CD38^−lin^− cells.

human BM SRCs = assay: In vivo long-term repopulating assay in NOD/SCID mice (SRC assay) of cultured progeny
Procedure: In Vivo Long-Term Repopulating Assays in NOD/SCID Mice
NOD/SCID mice (Schulz et al, J. Immunol. 154:180-191 (1995)) were transplanted with either day 0 FACS-sorted BM or CB CD34^+CD38^− lin^− HSC-enriched cells or the progeny of CD34^+CD38^−lin− cells cultured with TSF alone or TSF supplemented with 1 μM LGD506, an RXR-specific ligand. Cells were transplanted via tail vein injection after irradiating NOD/SCID mice with 300 cGy using an X-ray irradiator as previously described (Chute et al, Blood 100:4433-4439 (2002), Chute et al, Blood 105:576-583 (2005)). Day 0 CD34^+CD38^−lin− HSCs and their progeny were co-transplanted with 2×10^4 […] accessory cells to facilitate engraftment as previously described (Bonnet et al, Bone Marrow Transpl. 23:203-209 (1999), Bhatia et al, Proc. Natl. Acad. Sci. USA 94:5320-5325 (1997)).
All mice in each group were sacrificed at week 8 and marrow samples were obtained by flushing their femurs with IMDM at 4° C. Red cells were lysed using red cell lysis buffer (Sigma-Aldrich) and flow cytometric analysis of human hematopoietic engraftment was performed as previously described using commercially available mAbs against human leukocyte differentiation antigens to identify engrafted human leukocytes and discriminate their hematopoietic lineages (Chute et al, Blood 100:4433-4439 (2002), Chute et al, Blood 105:576-583 (2005), Trischmann et al, J. Hematother. 2:305-313 (1993)).
Statistical Analysis and SRC Frequency Measurements
Comparisons of data from in vitro experiments were made using the Student's t test. For purposes of the limiting dilution analysis, a transplanted mouse was scored as positively engrafted if ≧0.1% of the marrow cells expressed human-CD45 via high resolution FACS analysis. This criteria is consistent with previously published criteria for human cell repopulation in NOD/SCID mice (Chute et al, Blood 100:4433-4439 (2002), Dorrell et al, Blood 95:102-110 (2000)). SRC frequency in each cell source was calculated using the maximum likelihood estimator as described previously by Taswell (J. Immunol. 126:1614-1619 (1981), Wang et al, Blood 89:3919-3924 (1997), Ueda et al, J. Clin. Invest. 105:1013-1021 (2000)). Confidence intervals for the frequencies were calculated using the profile likelihood method, and the likelihood ratio test was used to confirm the fit of the model.

HOXB4 = assay: Quantitative real-time PCR of HOXB4 expression in cultured CB CD34+CD38-lin- cells; assay type: cell-based, human
Source text: Real Time PCR Analysis of LGD506-Treated HSCs
Extraction of total RNA from Day 0 and Day 7 CB CD34^+ populations was done using a RNeasy Mini spin column (Qiagen, Valencia, Calif.) according to the manufacturer's recommended protocol. […] Briefly, total RNA was isolated from CD34^+CD38^−lin^− cells according to the manufacturer's instructions for the RNaqueous®—Micro (Ambion) and reversed-transcribed to cDNA using iScript™ cDNA synthesis Kit (Biorad, Hercules, Calif.). cDNA concentrations were measured with a fluorometer (Turner Designs, Sunnyvale, Calif.) using RiboGreen reagent (Invitrogen). PCR amplification reactions were performed in 13 μl and contained equal amounts of cDNAs, 6.5 μL of iQ SYBR green supermix (Bio-Rad), 0.2 μM of each forward and reverse gene-specific primers for genes of interest and the normalization gene 36B4. PCR was performed on an iCycler (Bio-Rad) according to the following cycling conditions: an initial cycle of 15 min at 95° C.; 45 cycles of 45 sec at 95° C., 15 sec at 55° C., and 15 sec at 72° C.; followed by a melt-curve analysis cycle with steps of 10 sec each at 0.5° C. increments from 60 to 95° C. Amplification rates were visualized and analyzed on ICYCLER IQ optical system software version 3.0 (Bio-Rad). Gene-specific primers were purchased from Integrated DNA Technologies (Coralville, Iowa).

RXR:LXR heterodimer = settings: unpublished data of M. Leibowitz et al.; cited from earlier work
RXR:RAR heterodimer = settings: unpublished data of M. Leibowitz et al.; cited from earlier work

## C/C(=C/C=C/C(C)=C/C(=O)O)c1cc(C(C)(C)C)cc(C(C)(C)C)c1OCC(F)F [LGD1506]
[1]; BM cells, LGD1506+TSF
  increase in BM CD34+CD38- cell numbers compared to day 0 (input): 4 fold
[1]; BM cells, LGD1506+TSF, day 7
  total cell expansion: 13 fold
[1]; LGD1506+TSF culture (FIG. 2D)
  reduction in CFC production during culture compared to TSF alone: 50%
[1]; LGD1506+TSF cultures, data not shown
  morphologic examination of cultured progeny: predominance of immature blasts
[1]; LGD1506 with TSF
  differentiation of human HSCs during culture: inhibited HSC differentiation
[1]; progeny of LGD1506+TSF cultures
  CFCs less compared to TSF-cultured cells: 2 fold
[2]; CB cells, TSF+LGD1506
  maintenance of CD34+CD38- cells in CB cultures: supported the maintenance
Human BM SRCs; cell dose 1−2.5×10^3, progeny of TSF+LGD1506 culture
  huCD45+ cell repopulation of transplanted mice: no huCD45+ cell repopulation was detected
Human BM SRCs; mice engrafted with LGD1506-treated cells
  multilineage differentiation in engrafted mice: normal multilineage differentiation was evident
Human BM SRCs; progeny of 5×10^3 BM CD34+CD38-lin- cells, LGD1506+TSF
  percent of transplanted mice with human repopulation: 50-80% and 80%
Human BM SRCs; progeny of 5×10^3 BM CD34+CD38-lin- cells, LGD1506+TSF, week 8
  mice showing huCD45+ cell repopulation: 4 of 5
Human BM SRCs; progeny of 5×10^3 BM cells, LGD1506+TSF
  mean huCD45+ cell repopulation: 0.2%
HOXB4; LGD1506+TSF versus TSF alone (FIG. 3A)
  HOXB4 expression over time: prevented the downregulation
HOXB4; LGD1506 added to TSF
  HOXB4 expression, percent of input (day 0) levels: 80% and 70%
RXR:LXR heterodimer
  effect on RXR:LXR heterodimer: inhibit
RXR:RAR heterodimer
  effect on RXR:RAR heterodimer: neutral or inhibitory effects

## CC1=C(/C=C/C(C)=C/C=C/C(C)=C/C(=O)O)C(C)(C)CCC1 [ATRA, all-trans retinoic acid]
[1]; BM cells, TSF+1 μM ligand, day 7
  percentage of CD34+CD38- cells at day 7: caused a decline
[2]; ATRA with TSF, by day 7
  differentiation of human HSCs during culture: enhanced the differentiation; also recorded: induced pronounced differentiation and myelbid maturation
[2]; CB cells, ATRA+TSF versus TSF alone
  number of CFCs: signficantly less CFCs; also recorded: decreased
[2]; CB cells, TSF+1 μM ATRA, 7 days, versus TSF alone
  percentage of CD34+ cells: marked loss; also recorded: declined relative to TSF alone
[2]; CB cells, TSF+1 μM ATRA, day 7
  CD34+CD38- cells remaining in culture: marked loss; also recorded: no CD34^+CD38^− cells remained
